Entries after “also recorded” stand apart in the source; their conditions may differ.
Legend:
Type in all cases: cell-based
[1] = target: T1, DC-SIGN expressed at the surface of DCs (Homo sapiens, UniProt Q9NNX6); experiment: Competition with gp120-FITC binding to DCs, flow cytometry; settings: 100 μM, 30 min pretreatment, competition not complete
T1 construct: endogenous in cells; host or cells: human monocyte-derived dendritic cells (GM-CSF/IL-4 differentiated)
T1 sequence (Q9NNX6 1-404): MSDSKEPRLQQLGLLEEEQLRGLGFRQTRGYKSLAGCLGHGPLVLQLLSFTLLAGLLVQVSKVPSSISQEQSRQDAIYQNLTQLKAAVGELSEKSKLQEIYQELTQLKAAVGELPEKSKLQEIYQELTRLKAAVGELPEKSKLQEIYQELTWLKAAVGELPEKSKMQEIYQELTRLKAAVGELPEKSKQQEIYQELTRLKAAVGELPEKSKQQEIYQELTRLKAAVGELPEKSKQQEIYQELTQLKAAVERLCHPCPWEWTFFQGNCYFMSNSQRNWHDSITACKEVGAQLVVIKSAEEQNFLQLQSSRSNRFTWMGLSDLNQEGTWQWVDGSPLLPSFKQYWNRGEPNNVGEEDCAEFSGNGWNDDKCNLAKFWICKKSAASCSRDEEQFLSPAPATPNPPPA
Description: Human DCs (1×10^5 in 100 μl) were aliquoted in a 96-well microtiter plate in RPMI 1640 medium without FBS. To assess the binding of HIV-1 glycoprotein 120, FITC conjugated recombinant gp120 HIV-1 IIIB (ImmunoDiagnostics Inc, Woburn, Mass. U.S.A.) was added to the cells (final concentration of 5 μg/ml) and incubated for 45 min at 37° C. For competition assays, cells were pretreated with either mannan (100 μg/ml final) or TriManC24 (100 μM) for 30 min at 37° C., followed by incubation with gp120-FITC for 45 min at 37° C. After washing with HBSS buffer (Lonza), expression of fluorescence intensity was analyzed on a FACSCalibur flow cytometer with the CellQuest Pro software
The ability of TriManC24 to inhibit the interactions of HIV-1 gp120 with DC-SIGN […] at the surface of DCs. Immature DCs were prepared by differentiation of human monocytes, in the presence of a cocktail of cytokines. The expression levels of DC-SIGN were controlled by flow cytometry. […] When cells were incubated with fluorescently-labeled gp120, a strong binding of gp120 to DCs was observed as compared with a lower interaction with monocytes (FIG. 1B).
A competition assays were performed by pre-incubating DCs with either TriManC24 or mannan, followed by the addition of gp120-FITC (FIG. 1C).

DC-SIGN = target: T2, DC-SIGN (Homo sapiens, UniProt Q9NNX6); experiment: DC-SIGN internalization in DCs (flow cytometry, confocal microscopy); settings: 100 μM
T2 construct: endogenous in cells; host or cells: human monocyte-derived dendritic cells (GM-CSF/IL-4 differentiated)
T2 sequence (Q9NNX6 1-404): T1 sequence (Q9NNX6 1-404)
Description: To visualize the effect on DC-SIGN, cells were either left untreated or exposed to TriMan (100 μM final) for 45 min at 37° C., fixed with 4% paraformaldehyde for 15 min at room temperature, washed, permeabilized with 0.1% Triton X-100 for 3 min at 20° C., washed and labeled with an anti-DC-SIGN primary monoclonal antibody clone 111H2 (Canard, et al., 2011), followed by a secondary FITC-labeled anti-mouse-IgG (Southern Biotech). Nuclei were labeled with DAPI. Slides were mounted and processed as above.
Moreover, expression of DC-SIGN was visualized with a fluorescently-labeled antibody by confocal fluorescence microscopy. In untreated cells, DC-SIGN was mostly located at the cell membrane, in agreement with previous reports (Engering, et al., 2002). Upon exposure to TriManC24, DC-SIGN was detected both at the cell membrane and within the cytoplasm. […] The effect of TriManC24 on DC-SIGN cellular localization was assessed by flow cytometry analyses of DCs, in the absence or presence of TriManC24.

HIV-1 R5 = HIV-1 R5 trans-infection of MAGI-CCR5 cells mediated by DCs
Description: (§1) ManC1, […] (comparative) and compounds of the invention (ManC24, ManC17, TriManC24, TriDiManC24, TriManinsatC24 and ManinsatC24) were serially diluted in water. Human DCs (1×10^5 in 200 μl ) were pre-treated with different concentrations of compounds, or mannan (Sigma) or culture medium alone, in RPMI 1640 medium containing 10% FBS for 45 min at 37° C., prior infection with HIV-1 (100 ng of p24Gag) for 3 h. Excess free virus and molecules were removed by three washes. DCs were then cocultured with MAGI -CCR5 cells (1×10^5) at 37° C. plated in a 48-well plate. After two days, viral infection of MAGI-CCR5 cells was quantitated following beta-galactosidase assays and enumerating blue cells by light microscopy.
(§2) The IC50 were determined by serial dilution of each compound. The trans-infection assays were repeated a minimum of three times, and the IC50 determined using KaleidaGraph.
To investigate the ability of the compounds of the invention to inhibit HIV-1 trans infection, we chose to infect human DCs in order to best mimic in vivo conditions. Human DCs were exposed to different compounds (namely, Mannan (control), ManC1 (comparative), ManC11 (comparative), ManC17, ManC24, TriManC24, TriDiManC24, ManinsatC24 and TriManinsatC24) for 45 min at 37° C., before inoculation with HIV-1 (strains R5 and X4) for 3 hours. After extensive washings to remove unbound virions and mannosides, DCs were then co-cultured with MAGI-CCR5 cells. This procedure allows precise quantification of HIV-1 replication in reporter MAGI-CCR5 cells by detection of beta-galactosidase activity. These cells express an integrated copy of the HIV long terminal repeat (LTR) fused to the beta-galactosidase reporter gene, and express the CD4 receptor and the CCR5 and CXCR4 co-receptors, required for entry of HIV-1 R5 and X4 respectively. Upon viral entry leading to viral Tat expression and activation of the LTR, these cells permit quantification of HIV trans-infection after two days.

HIV-1 X4 = HIV-1 X4 trans-infection of MAGI-CCR5 cells mediated by DCs
Description: as §1, §2
To investigate the ability of the compounds of the invention to inhibit HIV-1 trans infection, we chose to infect human DCs in order to best mimic in vivo conditions. […] This procedure allows precise quantification of HIV-1 replication in reporter MAGI-CCR5 cells by detection of beta-galactosidase activity. […] Upon viral entry leading to viral Tat expression and activation of the LTR, these cells permit quantification of HIV trans-infection after two days.

HIV-1 (R5 strain) = experiment: HIV-1 cis-infection and replication in DCs (p24Gag ELISA); settings: 10 and 100 μM, p24Gag in supernatant
Description: Human monocyte-derived dendritic cells (2×10^5; 300 μL) in RPMI 1640 medium containing 10% FBS were pre-treated with either anti-DC-SIGN antibodies (clone AZND1, Beckman-Coulter; 10 μg/mL) or compounds TriManC24 and TriManC24insat (10 and 100 μM) for 30 min at 37° C., before inoculation with HIV-1 (R5 strain; 100 ng of p24Gag). After 3 h, cells were pelleted and extensively washed to remove excess virus and compounds. On day 2, 4 and 7 after infection, cells were pelleted, an aliquot of the supernatant was removed and kept at −20° C., and half of the supernatant was replaced with fresh medium. Viral replication was monitored by measuring p24Gag levels in the culture supernatant by an enzyme-linked immunosorbent assay (ELISA, Innogenetics). […] As shown in the case of Dengue virus, the compounds of the invention may also interfere with HIV cis-infection. […] Discussion

SMILES: CCCCCCCCCCCCCCCCCCCCCCCCC(=O)NC(COCCC(=O)NCCOCCOCCOCCOC1OC(CO)C(O)C(O)C1O)(COCCC(=O)NCCOCCOCCOCCOC1OC(CO)C(O)C(O)C1O)COCCC(=O)NCCOCCOCCOCCOC1OC(CO)C(O)C(O)C1O (stereo not drawn) [TriManC24]
- inhibition of gp120 binding to DCs (in words) [1]: able to inhibit the binding of gp120-FITC to DCs
- inhibition of gp120 binding to DCs (in words) ([1]; listed as TrimanC24): competed for the binding of soluble gp120 glycoprotein to DC-SIGN
- DC-SIGN receptors internalized (DC-SIGN): about 20%
- residual level of trans-infection (HIV-1 R5): 20%
- residual level of trans-infection (HIV-1 X4): 15%
- inhibition of HIV-1 cis-infection / replication in DCs (in words) (HIV-1 (R5 strain)): decreases the amount of HIV R5 replication; also recorded: inhibit
